The results in this text go back to US6355472B2, “Method for producing nucleoside-5′-phosphate ester” (Ajinomoto Co., Inc., priority 1996, dated 2002).

Test [1] relates to acid phosphatase derived from Escherichia blattae. The class given is biochemical, Escherichia blattae JCM 1650.
Test [2] addresses T1, acid phosphatase derived from Morganella morganii (Morganella morganii, UniProt P28581).
T1 construct: made in house; host or cells: Morganella morganii NCIMB 10466 (native strain, not recombinant; purified from cell-free extract)
It is filed as biochemical, Morganella morganii NCIMB 10466.

Test [3] deals with T2, acid phosphatase sample derived from Morganella morganii (Morganella morganii, UniProt P28581).
T2 construct: made in house; host or cells: Morganella morganii NCIMB 10466 (native strain, not recombinant; purified from cell-free extract)
T2 sequence (P28581 21-249): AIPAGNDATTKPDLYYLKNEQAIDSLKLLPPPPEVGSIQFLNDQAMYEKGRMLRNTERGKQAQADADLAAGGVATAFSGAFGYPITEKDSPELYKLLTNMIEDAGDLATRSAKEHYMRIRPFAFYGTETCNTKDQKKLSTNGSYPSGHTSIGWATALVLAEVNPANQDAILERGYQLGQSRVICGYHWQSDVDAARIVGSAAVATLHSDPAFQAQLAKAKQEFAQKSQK
The test can be described thus: Phosphorylation reaction of various nucleosides by acid phosphatase sample. The class given is biochemical. The conditions noted are these: sodium pyrophosphate 10 g/dl, nucleoside 2 g/dl, enzyme 50 units/dl, pH 4.0, 30° C., 3 hours. How it is done:
Sodium pyrophosphate (10 g/dl) and inosine, guanosine, uridine, or cytidine (2 g/dl) as a phosphate group acceptor were dissolved in sodium acetate buffer (pH 4.0), to which the enzyme sample prepared in Example 1 was added so that its concentration was 50 units/dl. The reaction mixture was incubated at 30° C. for 3 hours while maintaining pH at 4.0.

Test [4] concerns E. coli JM109/pEPI380. The test can be described thus: Production of various nucleoside-5′-phosphate esters using new mutant acid phosphatase gene-containing strain. The class given is cell-based. The settings on record: pyrophosphoric acid 15 g/dl, nucleoside 8 g/dl, cells 100 mg/dl dry weight, pH 4.0, 35° C., 12 hours. As for the experimental part:
E. coli JM109/pEPI380 having introduced therein the plasmid containing the new mutant acid phosphatase gene was inoculated into 50 ml of an L medium containing 100 μg/ml of ampicillin and 1 mM of IPTG, and incubated at 37° C. for 16 hours.
Pyrophosphoric acid (15 g/dl) and 8 g/dl of inosine, […], uridine or cytidine as a phosphate acceptor were dissolved in a 100 mM acetate buffer ([…]). To this was added the above-mentioned strain such that the concentration reached 100 mg/dl in terms of the dry cell weight. The reaction was conducted at 35° C. for 12 hours while maintaining the pH at 4.0. The phosphorylation proceeded well with any of the nucleosides to form and accumulate the corresponding nucleoside-5′-phosphate esters. The nucleotide formed was only the nucleoside-5′-phosphate ester, and the formation of a nucleoside-2′-phosphate ester and a nucleoside-3′-phosphate ester as by-products was not observed at all.

Test [5] has as its system acid phosphatase sample derived from Escherichia blattae. The test can be described thus: Phosphorylation reaction of various nucleosides by acid phosphatase sample. The conditions noted are these: sodium pyrophosphate 15 g/dl, nucleoside 3 g/dl, enzyme 50 units/dl, pH 4.0, 35° C., 3 hours. It is filed as biochemical. As for the experimental part:
Sodium pyrophosphate (15 g/dl) and inosine, guanosine, uridine, or cytidine (3 g/dl) were dissolved in sodium acetate buffer (pH 4.0), to which the enzyme sample prepared in Example 4 was added so that its concentration was 50 units/dl. The reaction mixture was incubated at 35° C. for 3 hours while maintaining pH at 4.0.

Test [6] deals with Escherichia coli JM109/pEPI330. The test can be described thus: Production of various nucleoside-5′-phosphate esters using microbial cells of the mutant strain. It is filed as cell-based. The settings on record: sodium pyrophosphate 12 g/dl, nucleoside 6 g/dl, cells 200 mg/dl dry weight, pH 4.0, 35° C., 32 hours. As for the experimental part: Escherichia coli JM109/pEPI330 into which the plasmid containing the gene encoding the acid phosphatase with lowered phosphomonoesterase activity had been introduced was inoculated to an L medium (50 ml) containing 100 μg/ml of ampicillin and 1 mM of IPTG, and it was cultivated at 37° C. for 16 hours.
Sodium pyrophosphate (12 g/dl), and inosine, guanosine, uridine, or cytidine (6 g/dl) as a phosphate group acceptor were dissolved in 100 mM sodium acetate buffer (pH 4.0), to which the microbial cells described above were added to give a cell concentration of 200 mg/dl as converted into a dry weight of the cells. The reaction mixture was incubated at 35° C. for 32 hours while maintaining pH at 4.0. Produced nucleotide contained only nucleoside-5′-phosphate ester. By-production of nucleoside-2′-phosphate ester and nucleoside-3′-phosphate ester was not observed at all.

The subject of test [7] is E. coli JM109/pEPI380. The test can be described thus: Production of 5′-inosinic acid from various phosphate donors using new mutant acid phosphatase gene-containing strain. The class given is cell-based. The settings on record: inosine 6 g/dl, phosphate donor 15 g/dl, cells 100 mg/dl dry weight, pH 4.0, 35° C., 12 hours. As for the experimental part: E. coli JM109/pEPI380 having introduced therein the plasmid containing the new mutant acid phosphatase gene was inoculated into 50 ml of an L medium containing 100 μg/ml of ampicillin and 1 mM of IPTG, and incubated at 37 C. for 16 hours.
Inosine (6 g/dl) and 15 g/dl of a tripolyphosphate, a polyphosphate (“Polygon P”, a trade name for a product of Chiyoda Kagaku K.K.), […] or disodium carbamylphosphate were dissolved in a 100-mM acetate buffer (pH 4.0). To this was added the above-mentioned strain such that the concentration reached 100 mg/dl in terms of the dry cell weight. The reaction was conducted at 35° C. for 12 hours while maintaining the pH at 4.0. 5′-Inosinic acid was formed and accumulated at good efficiency with any of the phosphate donors. Especially when a polyphosphate was used as a phosphate donor, 5′-inosinic acid was accumulated in the largest amount.

Test [8] has as its system Escherichia coli JM109/pEPI330. The test can be described thus: Production of 5′-inosinic acid from various phosphate group donors using microbial cells of the mutant strain. The class given is cell-based. The conditions noted are these: inosine 6 g/dl, phosphate group donor 12 g/dl, cells 200 mg/dl dry weight, pH 4.0, 35° C., 32 hours. As for the experimental part:
Escherichia coli JM109/pEPI330 into which the plasmid containing the mutant acid phosphatase gene had been introduced was inoculated to an L medium (50 ml) containing 100 μg/ml of ampicillin and 1 mM of IPTG, and it was cultivated at 37° C. for 16 hours.
Inosine (6 g/dl) and sodium tripolyphosphate, sodium polyphosphate (trade name: Polygon P, produced by Chiyoda Chemical), disodium phenylphosphate, or disodium carbamyl phosphate (12 g/dl) as a phosphate group donor were dissolved in 100 mM sodium acetate buffer (pH 4.0), to which the microbial cells described above were added to give a cell concentration of 200 mg/dl as converted into a dry weight of the cells. The reaction mixture was incubated at 35° C. for 32 hours while maintaining pH at 4.0. 5′-Inosinic acid was efficiently produced and accumulated by using any of the phosphate group donors. However, the accumulated amount of 5′-inosinic acid was the highest when polyphosphoric acid was used as the phosphate group donor.

The target of test [9] is T2, acid phosphatase sample derived from Morganella morganii. The test can be described thus: Production of 5′-inosinic acid from various phosphate group donors by acid phosphatase sample. The class given is biochemical. The conditions noted are these: inosine 2 g/dl, phosphate group donor 10 g/dl, enzyme 50 units/dl, pH 4.0, 30° C., 3 hours. How it is done: Inosine (2 g/dl) and sodium tripolyphosphate, sodium polyphosphate (trade name: Polygon P, produced by Chiyoda Chemical), disodium phenylphosphate, or disodium carbamyl phosphate (10 g/dl) as a phosphate group donor were dissolved in sodium acetate buffer (pH 4.0), to which the enzyme sample prepared in Example 1 was added so that its concentration was 50 units/dl. The reaction mixture was incubated at 30° C. for 3 hours while maintaining pH at 4.0.

Test [10] deals with acid phosphatase sample derived from Escherichia blattae. The description is as above. It is filed as biochemical. The conditions noted are these: inosine 2 g/dl, phosphate group donor 10 g/dl, enzyme 50 units/dl, pH 4.0, 35° C., 3 hours. How it is done: Inosine (2 g/dl) and sodium tripolyphosphate, sodium polyphosphate (trade name: Polygon P, produced by Chiyoda Chemical), disodium phenylphosphate, or disodium carbamyl phosphate (10 g/dl) as a phosphate group donor were dissolved in sodium acetate buffer (pH 4.0), to which the enzyme sample prepared in Example 4 was added so that its concentration was 50 units/dl. The reaction mixture was incubated at 35° C. for 3 hours while maintaining pH at 4.0.

T1 sequence (P28581 21-249): as above

For the molecule `[Ag+2]` [Ag^2+], the “Effect of the addition of metal ion and inhibitor on activity” value in test [1] and in [2] was “inhibited” in each case.

With `[Cu+2]` [Cu^2+], the “Effect of the addition of metal ion and inhibitor on activity” value in test [1] and in [2] was “inhibited” each time.

On to `Nc1ccn([C@@H]2O[C@H](CO)[C@@H](O)[C@H]2O)c(=O)n1` [Cytidine, cytidine], for which the entries for the “Amount Produced (nucleoside-5′-ester)” value in test [3] and in [5] were 0.98 g/dL and 1.22 g/dL, respectively. Further, the “Amount of the Product (nucleoside-5′-phosphate ester)” value (shortened to “Amount of the Product”) in the test with E. coli JM109/pEPI380 [4] came out at 10.65 g/dL. In addition, the “Amount Produced (nucleoside-5′-phosphate ester)” value in [6] was 6.60 g/dL.

As for `NC(=O)OP(=O)([O-])[O-].[Na+].[Na+]` [Disodium carbamyl phosphate, disodium carbamyl phosphate], in the test with E. coli JM109/pEPI380 [7], the “Amount of 5′-inosinic acid formed” value is 12.42 g/dL. For the same molecule, the “Produced 5′-inosinic acid” value in test [8] was 7.73 g/dL; in [9] it was 2.54 g/dL; in test [10], 1.53 g/dL.

On to `O=P([O-])([O-])Oc1ccccc1.[Na+].[Na+]` [Disodium phenylphosphate, disodium phenylphosphate], for which, in the test on E. coli JM109/pEPI380 [7], the “Amount of 5′-inosinic acid formed” value worked out at 12.84 g/dL. Also, the “Produced 5′-inosinic acid” value turned out to be 7.60 g/dL in test [8], 2.33 g/dL in test [9] and 1.50 g/dL in [10].

As to `[Fe+2]` [Fe^2+], the “Effect of the addition of metal ion and inhibitor on activity” value in test [1] is reported as “inhibited”.

Turning to `Nc1nc2c(ncn2[C@@H]2O[C@H](CO)[C@@H](O)[C@H]2O)c(=O)[nH]1` [Guanosine, guanosine], the “Amount Produced (nucleoside-5′-ester)” value in [3] came out at 1.90 g/dL; in test [5] it was 1.05 g/dL. Besides, the “Amount of the Product” value in the test with E. coli JM109/pEPI380 [4] was 5.78 g/dL. Moreover, the “Amount Produced (nucleoside-5′-phosphate ester)” value in test [6] came out at 4.77 g/dL.

For `[Hg+2]` [Hg^2+], the “Effect of the addition of metal ion and inhibitor on activity” value in test [1] and in test [2] was “inhibited” in each case.

Regarding `OC[C@H]1O[C@@H](n2cnc3c(O)ncnc32)[C@H](O)[C@@H]1O` [Inosine, inosine], the “Amount Produced (nucleoside-5′-ester)” value in [3] is 2.60 g/dL; in test [5] it was 1.56 g/dL. In the test on E. coli JM109/pEPI380 [4], the “Amount of the Product” value stood at 12.05 g/dL. Further, the “Amount Produced (nucleoside-5′-phosphate ester)” value in test [6] came out at 7.45 g/dL.

For the molecule `[Pb+2]` [Pb^2+], the “Effect of the addition of metal ion and inhibitor on activity” value in test [1] and in test [2] was “inhibited” each time.

For `O=P(O)(O)OP(=O)(O)OP(=O)(O)O` [Sodium tripolyphosphate, sodium tripolyphosphate], the “Amount of 5′-inosinic acid formed” value in the test with E. coli JM109/pEPI380 [7] turned out to be 10.84 g/dL. Further, the “Produced 5′-inosinic acid” value in test [8] stood at 5.96 g/dL; in [9] it was 2.10 g/dL; in [10], 1.20 g/dL.

Regarding `O=c1ccn([C@@H]2O[C@H](CO)[C@@H](O)[C@H]2O)c(=O)[nH]1` [Uridine, uridine], the “Amount Produced (nucleoside-5′-ester)” value stood at 1.30 g/dL in test [3] and 1.87 g/dL in test [5]. Moreover, the “Amount of the Product” value in the test with E. coli JM109/pEPI380 [4] was 13.28 g/dL. Besides, the “Amount Produced (nucleoside-5′-phosphate ester)” value in test [6] turned out to be 8.93 g/dL.

Regarding `O=C(O)CI` [iodoacetic acid], the “Effect of the addition of metal ion and inhibitor on activity” value in test [1] and in [2] was “inhibited” each time.

Turning to `CC(=O)OP(=O)([O-])[O-].[K+].[Li+]` [potassium lithium acetylphosphate], the “Amount of 5′-inosinic acid formed” value in the test with E. coli JM109/pEPI380 [7] worked out at 10.65 g/dL.

As to sodium polyphosphate, the “Amount of 5′-inosinic acid formed” value in the test on E. coli JM109/pEPI380 [7] is 13.35 g/dL. In addition, the results for the “Produced 5′-inosinic acid” value in [8], in [9] and in test [10] were 8.84 g/dL, 2.72 g/dL and 1.79 g/dL, respectively.
